“Also recorded” adds a separate entry of the source.

In data set [1] the test system is IL-10−/− mice with established colitis. The data set can be described thus: EMPA treatment of adult IL-10−/− mice with established colitis. In kind it is in vivo, mouse. The source says:
Methods: In our colony, IL-10−/− mice begin to develop colitis between 8-12 weeks of age. […] Further, this dose was also chosen to match the active dose in humans by considering the differences in the metabolism and other pharmacokinetic parameters between mice and humans^55. The dose used in this study results in free plasma concentration of ˜20 nmol/L in mice^56 which is within the normal and safe range of that reported in humans^57-59. […] Adult IL-10^−/− mice with established colitis were treated with a daily gavage of EMPA (10 mg/kg; n=10) or vehicle (n=10) for 14 days. Disease activity was assessed by measurement of mouse weight, colonic weight and length, histological score, cytokine levels in colonic homogenate and lipocalin-2 levels in stool. To examine for possible direct effects of EMPA, colonic explants from wild-type and IL-10^−/− mice were incubated with increasing doses of EMPA (0.1-5 μM)±LPS for 2 hours and tissue levels of IL-1β and TNFα measured.
FIG. 4. Representative histological samples of colons. Colons were flushed with phosphate-buffered saline containing 0.1% gentamycin and immediately fixed in 10% v/v neutral buffered formalin. The fixed samples were paraffin-embedded, sectioned, and stained with hematoxylin and eosin. Disease scoring methods used were based on four scores: 1) epithelial hyperplasia (0-3), 2) enterocyte injury (0-3), 3) lymphocytes (0-2) and neutrophil infiltration (0-2) in the lamina propria. The total maximum histological score (10) is based on the sum of the individual scores. (A) control. (B) Empa.

In a further data set the test system is SGLT2 over SGLT1. To be noted: cited from earlier work.
The conditions of data set [2]: cited from earlier work.
For data set [3] the following is noted: mice, 10 mg/kg dose; cited from earlier work.
The conditions of data set [4]: healthy humans, dose matched to the human active dose; cited from earlier work.
Another data set concerns murine macrophages. As to conditions: murine macrophages in vitro, cited from earlier work.
The test system of another data set is human THP-1 macrophages. As to conditions: pretreatment for 24 hours; cited from earlier work.
The mark [5] stands for this setting: EMPA 10 mg/kg daily gavage, 14 days, p=0.04.

Regarding `OC[C@H]1O[C@@H](c2ccc(Cl)c(Cc3ccc(O[C@H]4CCOC4)cc3)c2)[C@H](O)[C@@H](O)[C@@H]1O` [EMPA, Empagliflozin], the “lymphocytic infiltration into the lamina propria” value in data set [1] (EMPA 10 mg/kg daily gavage, 14 days) was “reduced”. The “enterocyte injury (histological score)” value in data set [1] (EMPA 10 mg/kg daily gavage, 14 days, vs vehicle, p<0.01) is reported as “no enterocyte injury; also recorded: significant decrease”. Besides, in data set [1] (EMPA 10 mg/kg daily gavage, 14 days, vs vehicle, p=0.006), the total histological score result is “decreased”. Moreover, the “lamina propria neutrophils (histological score)” value in data set [1] (EMPA 10 mg/kg daily gavage, 14 days, vs vehicle, p=0.01) is listed as “decreased”. The “colonic weight to length ratio” value in data set [1] (EMPA 10 mg/kg daily gavage, 14 days, vs vehicle, p=0.019) is “decreased”. Also, the “fecal lipocalin-2” value in data set [1] (EMPA 10 mg/kg daily gavage, 14 days, vs vehicle, p=0.03) is “decrease”. In addition, in data set [1] (EMPA 10 mg/kg daily gavage, 14 days, p=0.02), the “colonic TNFα (real-time qPCR)” value was “significant decreases”. In data set [1] (setting [5]), the “colonic IFNγ (real-time qPCR)” value is listed as “significant decreases” and the “colonic IL-1β (real-time qPCR)” value was “significant decreases”. Also, the “body weight over the 14 days” value in data set [1] (EMPA 10 mg/kg daily gavage, vehicle treated mice continued to lose weight, p=0.04) is “maintained their weight”. Further, the “blood glucose levels in pilot experiments” value in data set [1] (EMPA 10 mg/kg dose, pilot experiments) is listed as “no effect”. Also, the blood glucose levels result in data set [1] (EMPA-treated mice vs controls, 14 days) is “no significant differences”. Further, the “selectivity for SGLT2 over SGLT1” value with SGLT2 over SGLT1 was around 2700 fold. Besides, in data set [2] (after a single dose), the “time to peak levels” value was 1.5 h. Moreover, in data set [2] (humans), the bioavailability is 78%. In addition, the half-life in data set [2] (in humans) is around 12 h. For the same molecule, in data set [2] (in vivo), the “recovered in the feces as unchanged drug” value is “Approximately 40%”. In addition, the free plasma concentration in data set [3] is around 20 nmol/L. For the same molecule, in data set [4], the hypoglycemia result is “does not cause hypoglycemia”. The “expression of anti-inflammatory M2 markers” value in the data set with murine macrophages (AMPK-mediated mechanism) was “increased”. Further, in the data set with murine macrophages, the “LPS-induced ATP depletion” value was “prevented”; the “LPS-induced TNFα and iNOS expression” value is “attenuated”. In the data set on human THP-1 macrophages, the TNFα-stimulated chemokine release result is recorded as “decreased”.

Values taken from patent US20240148767A1, “THE USE OF EMPAGLIFLOZIN FOR THE TREATMENT OF ULCERATIVE COLITIS AND CROHN'S DISEASE” (The Governors of the University of Alberta, priority 2021, published 2024).
